Measurements from ChEMBL document CHEMBL2163248, “Classification of inhibitors of hepatic organic anion transporting polypeptides (OATPs): influence of protein expression on drug-drug interactions” (J Med Chem, 2012).
Where a SMILES comes first, the peptide text is derived from it.

Experiments:
[1] = target: T1, Solute carrier organic anion transporter family member 1B3 (Homo sapiens, UniProt Q9NPD5); assay: Inhibition of human liver OATP1B3 expressed in HEK293 Flp-In cells assessed as reduction in [3H]E17-betaG uptake at 20 uM incubated for 5 mins by scintillation counting; settings: hek293, 5 min
T1 sequence (Q9NPD5 whole entry): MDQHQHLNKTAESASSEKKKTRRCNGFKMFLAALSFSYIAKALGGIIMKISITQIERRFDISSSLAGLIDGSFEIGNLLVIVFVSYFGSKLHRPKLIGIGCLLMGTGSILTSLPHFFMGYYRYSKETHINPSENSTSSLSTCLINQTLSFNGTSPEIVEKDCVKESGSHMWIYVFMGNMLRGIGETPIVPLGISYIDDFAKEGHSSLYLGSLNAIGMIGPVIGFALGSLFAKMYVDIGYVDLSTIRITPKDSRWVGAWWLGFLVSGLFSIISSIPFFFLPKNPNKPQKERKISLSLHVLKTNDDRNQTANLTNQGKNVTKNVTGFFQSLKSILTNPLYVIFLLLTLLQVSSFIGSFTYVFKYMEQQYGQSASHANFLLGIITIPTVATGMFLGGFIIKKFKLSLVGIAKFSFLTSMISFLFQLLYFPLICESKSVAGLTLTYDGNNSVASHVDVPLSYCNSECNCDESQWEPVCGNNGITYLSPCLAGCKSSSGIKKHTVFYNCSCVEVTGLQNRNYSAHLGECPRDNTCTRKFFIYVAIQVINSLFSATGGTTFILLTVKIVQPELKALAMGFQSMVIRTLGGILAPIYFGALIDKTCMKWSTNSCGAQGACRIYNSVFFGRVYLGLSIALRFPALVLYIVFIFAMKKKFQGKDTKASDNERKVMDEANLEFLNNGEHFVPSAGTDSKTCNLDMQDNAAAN

[2] = target: T2, Solute carrier organic anion transporter family member 2B1 (Homo sapiens, UniProt O94956); assay: Inhibition of human liver OATP2B1 expressed in HEK293 Flp-In cells assessed as reduction in [3H]E3S uptake at 20 uM incubated for 5 mins by scintillation counting; settings: hek293, 5 min
T2 sequence (O94956 whole entry): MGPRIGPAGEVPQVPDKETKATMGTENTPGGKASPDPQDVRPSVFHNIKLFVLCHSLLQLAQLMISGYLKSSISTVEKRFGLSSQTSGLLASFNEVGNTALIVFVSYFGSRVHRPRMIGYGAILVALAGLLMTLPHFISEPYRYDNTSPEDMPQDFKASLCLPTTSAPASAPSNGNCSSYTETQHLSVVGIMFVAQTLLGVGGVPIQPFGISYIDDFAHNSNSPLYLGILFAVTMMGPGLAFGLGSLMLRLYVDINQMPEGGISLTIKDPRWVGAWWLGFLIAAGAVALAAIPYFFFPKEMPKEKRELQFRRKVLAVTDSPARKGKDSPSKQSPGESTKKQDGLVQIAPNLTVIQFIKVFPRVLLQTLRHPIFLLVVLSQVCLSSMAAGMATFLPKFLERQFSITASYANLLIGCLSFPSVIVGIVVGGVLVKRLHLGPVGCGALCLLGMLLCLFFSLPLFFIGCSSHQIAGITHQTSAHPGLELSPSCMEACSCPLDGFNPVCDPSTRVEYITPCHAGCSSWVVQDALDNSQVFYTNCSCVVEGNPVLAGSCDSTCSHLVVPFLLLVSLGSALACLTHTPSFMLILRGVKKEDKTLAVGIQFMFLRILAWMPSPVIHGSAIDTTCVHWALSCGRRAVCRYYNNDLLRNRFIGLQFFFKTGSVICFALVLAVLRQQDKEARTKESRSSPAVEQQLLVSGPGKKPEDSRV

[3] = target: T3, Solute carrier organic anion transporter family member 1B1 (Homo sapiens, UniProt Q9Y6L6); assay: Inhibition of human liver OATP1B1 expressed in HEK293 Flp-In cells assessed as reduction in E17-betaG uptake at 20 uM by scintillation counting; settings: hek293, 20 µM
T3 sequence (Q9Y6L6 whole entry): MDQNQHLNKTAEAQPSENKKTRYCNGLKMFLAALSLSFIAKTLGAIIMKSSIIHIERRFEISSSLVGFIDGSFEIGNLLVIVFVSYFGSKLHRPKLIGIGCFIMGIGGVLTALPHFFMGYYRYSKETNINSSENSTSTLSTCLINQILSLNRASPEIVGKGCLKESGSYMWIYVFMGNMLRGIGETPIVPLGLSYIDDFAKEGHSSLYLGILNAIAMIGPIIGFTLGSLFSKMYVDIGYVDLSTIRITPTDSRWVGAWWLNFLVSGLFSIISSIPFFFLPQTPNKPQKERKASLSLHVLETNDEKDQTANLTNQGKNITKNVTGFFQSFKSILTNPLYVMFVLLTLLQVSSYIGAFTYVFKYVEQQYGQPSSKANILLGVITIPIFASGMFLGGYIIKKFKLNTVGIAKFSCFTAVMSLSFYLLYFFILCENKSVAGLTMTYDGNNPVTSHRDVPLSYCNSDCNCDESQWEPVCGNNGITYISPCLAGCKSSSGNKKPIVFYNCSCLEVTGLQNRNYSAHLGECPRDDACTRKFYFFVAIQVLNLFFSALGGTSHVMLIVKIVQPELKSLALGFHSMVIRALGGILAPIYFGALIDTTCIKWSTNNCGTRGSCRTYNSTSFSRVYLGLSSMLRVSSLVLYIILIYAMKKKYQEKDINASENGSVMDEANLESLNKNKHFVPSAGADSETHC

Structure (SMILES): CCOC(=O)C1=C(C)NC(C)=C(C(=O)OC)C1c1cccc(Cl)c1Cl (configuration not stated) [FELODIPINE]
- INH [1]: 18.4%
- INH [2]: 21.4%
- INH [3]: 36.6%

Structure (SMILES): CC(NCCC(c1ccccc1)c1ccccc1)c1ccccc1 (configuration not stated) [FENDILINE]
- INH [1]: 20.4%
- INH [2]: -118.7%
- INH [3]: 15%

Structure (SMILES): CC(C)OC(=O)C(C)(C)Oc1ccc(C(=O)c2ccc(Cl)cc2)cc1 [FENOFIBRATE]
- INH [1]: -10.8%
- INH [2]: 34.2%
- INH [3]: 5.4%

Structure (SMILES): OC(Cn1cncn1)(Cn1cncn1)c1ccc(F)cc1F [FLUCONAZOLE]
- INH [1]: 7.5%
- INH [2]: 34.1%
- INH [3]: 7.4%

Structure (SMILES): CNCCC(Oc1ccc(C(F)(F)F)cc1)c1ccccc1 (configuration not stated) [FLUOXETINE]
- INH [1]: 14.3%
- INH [2]: 22.6%
- INH [3]: 21.8%

Structure (SMILES): CC(C)C(=O)Nc1ccc([N+](=O)[O-])c(C(F)(F)F)c1 [FLUTAMIDE]
- INH [1]: 9%
- INH [2]: 65.8%
- INH [3]: 6.8%

Structure (SMILES): COCCCC/C(=N\OCCN)c1ccc(C(F)(F)F)cc1 [FLUVOXAMINE]
- INH [1]: 29.2%
- INH [2]: 39%
- INH [3]: 43.8%

Structure (SMILES): Cc1nc2c([nH]1)c(=O)n(C)c(=O)n2Cc1ccco1 [FURAFYLLINE]
- INH [1]: 0.7%
- INH [2]: 18.1%
- INH [3]: -14.7%

Structure (SMILES): Cc1ccc(C)c(OCCCC(C)(C)C(=O)O)c1 [GEMFIBROZIL]
- INH [1]: 14.4%
- INH [2]: 15.1%
- INH [3]: 59.3%

Structure (SMILES): O=c1c(-c2ccc(O)cc2)coc2cc(O)cc(O)c12 [GENISTEIN]
- INH [1]: -5%
- INH [2]: 67.9%
- INH [3]: 84.9%

Structure (SMILES): C[C@H](CCC(=O)NCC(=O)O)[C@H]1CC[C@H]2[C@@H]3[C@H](O)C[C@@H]4C[C@H](O)CC[C@]4(C)[C@H]3CC[C@]12C [GLYCOCHENODEOXYCHOLATE]
- INH [1]: 72%
- INH [2]: 65.3%
- INH [3]: 80.2%

Structure (SMILES): C[C@H](CCC(=O)NCC(=O)O)[C@H]1CC[C@H]2[C@@H]3CC[C@@H]4C[C@H](O)CC[C@]4(C)[C@H]3C[C@H](O)[C@]12C [GLYCODEOXYCHOLATE]
- INH [1]: 79%
- INH [2]: 53.8%
- INH [3]: 85%

Structure (SMILES): NCC(=O)N1CCC[C@H]1C(=O)O [GLYCYL PROLINE] (H-Gly-Pro-OH)
- INH [1]: 9.6%
- INH [2]: 24.1%
- INH [3]: -8.4%

Structure (SMILES): CC1(C)[C@@H](O[C@H]2O[C@H](C(=O)O)[C@@H](O)[C@H](O)[C@H]2O[C@@H]2O[C@H](C(=O)O)[C@@H](O)[C@H](O)[C@H]2O)CC[C@]2(C)[C@H]3C(=O)C=C4[C@@H]5C[C@@](C)(C(=O)O)CC[C@]5(C)CC[C@@]4(C)[C@]3(C)CC[C@@H]12 [GLYCYRRHIZIN]
- INH [1]: 90.9%
- INH [2]: 28.7%
- INH [3]: 65.8%

Structure (SMILES): CN[C@@H]1C[C@H](N)[C@@H](O)[C@H](O[C@H]2O[C@H](CO)[C@H](O)[C@@H]3O[C@@]4(O[C@@H]23)O[C@H]([C@H](N)CO)[C@H](O)[C@H](O)[C@H]4O)[C@H]1O [HYGROMYCIN]
- INH [1]: -4.2%
- INH [2]: 31.5%
- INH [3]: 32.8%

Structure (SMILES): CC(C)Cc1ccc(C(C)C(=O)O)cc1 (configuration not stated) [IBUPROFEN]
- INH [1]: -6.6%
- INH [2]: 13.5%
- INH [3]: 47.3%

Structure (SMILES): CN(C)CCCN1c2ccccc2CCc2ccccc21 [IMIPRAMINE]
- INH [1]: -2.4%
- INH [2]: 16.9%
- INH [3]: 26.9%

Structure (SMILES): CC1(C)C(/C=C/C=C/C=C/C=C2/N(CCCCS(=O)(=O)[O-])c3ccc4ccccc4c3C2(C)C)=[N+](CCCCS(=O)(=O)[O-])c2ccc3ccccc3c21.[Na+] [INDOCYANINE GREEN]
- INH [1]: 100.1%
- INH [2]: 79.2%
- INH [3]: 86.1%

Structure (SMILES): COc1ccc2c(c1)c(CC(=O)O)c(C)n2C(=O)c1ccc(Cl)cc1 [INDOMETHACIN]
- INH [1]: 48.6%
- INH [2]: -82.4%
- INH [3]: 88.6%

Structure (SMILES): CCc1c2c(nc3ccc(OC(=O)N4CCC(N5CCCCC5)CC4)cc13)-c1cc3c(c(=O)n1C2)COC(=O)[C@]3(O)CC [IRINOTECAN]
- INH [1]: 26.9%
- INH [2]: 16.3%
- INH [3]: 40.5%

Structure (SMILES): NNC(=O)c1ccncc1 [ISONIAZID]
- INH [1]: 18.7%
- INH [2]: 23.8%
- INH [3]: 29.9%

Structure (SMILES): COC(=O)C1=C(C)NC(C)=C(C(=O)OC(C)C)C1c1cccc2nonc12 (configuration not stated) [ISRADIPINE]
- INH [1]: 7.7%
- INH [2]: 12%
- INH [3]: 47.5%

Structure (SMILES): CCC(C)n1ncn(-c2ccc(N3CCN(c4ccc(OCC5COC(Cn6cncn6)(c6ccc(Cl)cc6Cl)O5)cc4)CC3)cc2)c1=O (configuration not stated) [ITRACONAZOLE]
- INH [1]: -2.3%
- INH [2]: 59.8%
- INH [3]: 22.3%

Structure (SMILES): CC(=O)N1CCN(c2ccc(OCC3COC(Cn4ccnc4)(c4ccc(Cl)cc4Cl)O3)cc2)CC1 (configuration not stated) [KETOCONAZOLE]
- INH [1]: 24.7%
- INH [2]: 44%
- INH [3]: 53.6%

Structure (SMILES): Nc1nnc(-c2cccc(Cl)c2Cl)c(N)n1 [LAMOTRIGINE]
- INH [1]: 14.5%
- INH [2]: 13.6%
- INH [3]: 24.9%

Structure (SMILES): Cc1c(OCC(F)(F)F)ccnc1C[S+]([O-])c1nc2ccccc2[nH]1 (configuration not stated) [LANSOPRAZOLE]
- INH [1]: 23.3%
- INH [2]: -75.7%
- INH [3]: 31.4%

Structure (SMILES): NCCCC[C@H](N[C@@H](CCc1ccccc1)C(=O)O)C(=O)N1CCC[C@H]1C(=O)O [LISINOPRIL ANHYDROUS]
- INH [1]: 9%
- INH [2]: 19.2%
- INH [3]: 4.6%

Structure (SMILES): CN(C)C(=O)C(CCN1CCC(O)(c2ccc(Cl)cc2)CC1)(c1ccccc1)c1ccccc1 [LOPERAMIDE]
- INH [1]: 32.4%
- INH [2]: 19.6%
- INH [3]: 32.5%

Structure (SMILES): Cc1cccc(C)c1OCC(=O)N[C@@H](Cc1ccccc1)[C@@H](O)C[C@H](Cc1ccccc1)NC(=O)[C@H](C(C)C)N1CCCNC1=O [LOPINAVIR]
- INH [1]: 84.6%
- INH [2]: 86.4%
- INH [3]: 85.8%

Structure (SMILES): CC[C@H](C)C(=O)O[C@H]1C[C@@H](C)C=C2C=C[C@H](C)[C@H](CC[C@@H]3C[C@@H](O)CC(=O)O3)[C@H]21 [LOVASTATIN]
- INH [1]: 21.3%
- INH [2]: -17.9%
- INH [3]: 66.5%

Structure (SMILES): CCC1(c2ccccc2)NC(=O)N(C)C1=O (configuration not stated) [MEPHENYTOIN]
- INH [1]: -0.6%
- INH [2]: 32.9%
- INH [3]: -5.7%

Structure (SMILES): CN(Cc1cnc2nc(N)nc(N)c2n1)c1ccc(C(=O)N[C@@H](CCC(=O)O)C(=O)O)cc1 [METHOTREXATE]
- INH [1]: 17.2%
- INH [2]: -13.4%
- INH [3]: 27.4%

Structure (SMILES): COc1c2occc2cc2ccc(=O)oc12 [METHOXSALEN]
- INH [1]: 8.9%
- INH [2]: -1.6%
- INH [3]: 38.1%

Structure (SMILES): COCCc1ccc(OCC(O)CNC(C)C)cc1 (configuration not stated) [METOPROLOL]
- INH [1]: 19.8%
- INH [2]: 30.5%
- INH [3]: 28.1%
